The values below come from patent US10899747B2, “Biaryl piperidine amide compounds and methods of use thereof” (Athenex, Inc., priority 2017, dated 2021).

Each structure is given as a SMILES string.

This test relates to IL-2. The test can be described thus: PHA-IL2 (cell activation and cytokine analysis). It is filed as cell-based. Conditions: 50% inhibition concentration class. The method, then: Cells to be tested may include, but are not limited to, a) Jurkat (a transformed human T cell leukemia), b) whole blood isolated from human or rodent sources, c) peripheral blood mononuclear cells (PBMC) freshly isolated from human or rodent whole blood, or d) purified fractions of PBMC (e.g., CD4 T cells). Cells are plated in 96-well plates at a final density of 1.0-2.0×10^6 cells/ml in 150 ul of assay medium (RPMI+0.5% fetal calf serum). Test compounds are included at a final concentration of ≤20 uM and generally pre-incubated with cells for 30 minutes prior to stimulation. An appropriate stimulus is added, including but not limited to, a) phytohemagglutinin (PHA), b) phorbol myristate acetate (PMA) and ionomycin, or c) stimulatory antibodies to the T cell receptor (TCR) complex (e.g., anti-CD3ε) and CD28. Cell cultures are stimulated for 24-48 hours in a humidified incubator (37 degrees C./5% CO2). A fraction of the culture supernatant is than harvested from each well and assayed for the presence of appropriate cytokine using standard ELISA. Cytokines to be analyzed may include IL-2, IL-4, IL-10, IL-17, IL-22, IFNγ, and/or TNFα. If required, the number of cytokine producing cells can be determined using intracellular staining and flow cytometry. […]

For the compound `CC1Oc2ccc(CCC3CCN(C(=O)COc4ccccc4-c4ccc(F)cc4)CC3)cc2OC1C` (stereo not shown) [Compound 264], the IC50 is < 1000 nM. With `COc1cccc(CCC2CCN(C(=O)COc3ccccc3-c3ccc(F)cc3O)CC2)c1` [Compound 304], the IC50 is < 1000 nM. Next, `COc1cccc(CCC2CCN(C(=O)CCc3ccccc3-c3ccccc3)CC2)c1` [Compound 221]: 10000 to 50000 nM. Under `O=C(COc1ccccc1-c1ccc(Cl)nc1)N1CCC(CCc2ccccc2)CC1` [Compound 271] stands < 1000 nM; under `Cc1ccccc1-c1ccccc1OCC(=O)N1CCC(CCc2ccc3c(c2)OCO3)CC1` [Compound 155], 1000 to 10000 nM; under `CN(C)c1ccc(-c2ccccc2OCC(=O)N2CCC(CCc3ccc4c(c3)OCO4)CC2)cc1` [Compound 213], 10000 to 50000 nM. Next, `COc1cccc(CCC2CCN(C(=O)C[S+]([O-])c3ccccc3-c3ccccc3)CC2)c1` (stereo not shown) [Compound 313]: 10000 to 50000 nM. The compound `O=C(COc1ccccc1-c1ccc(C(F)(F)F)cc1O)N1CCC(CCc2ccc3c(c2)OCO3)CC1` [Compound 365] had a half-maximal inhibitory concentration (IC50) of 1000 to 10000 nM.

In the case of `CCN(CC)C(=O)c1cccc(-c2ccccc2OCC(=O)N2CCC(CCc3ccc4c(c3)OCO4)CC2)c1` [Compound 185], the IC50 was in the range of 10000 to 50000 nM.

As for `O=C(CCc1ccccc1-c1ccccc1)N1CCC(CCc2ccc3c(c2)OCO3)CC1` [Compound 219], the IC50 is 10000 to 50000 nM. Under `O=C(COc1ccccc1-c1ccnc(N2CCOCC2)c1)N1CCC(CCc2ccc3c(c2)OCO3)CC1` [Compound 161] stands 1000 to 10000 nM; under `CC1CC(CCc2ccccc2)CCN1C(=O)COc1ccccc1-c1ccc(C#N)cc1` (stereo not shown) [Compound 302], < 1000 nM; under `O=C(NCCO)c1ccc(-c2ccccc2OCC(=O)N2CCC(CCc3ccc4c(c3)OCO4)CC2)cc1` [Compound 182], 10000 to 50000 nM.

Turning to `O=C(COc1ccccc1-c1ccncc1)N1CCC(CCc2ccc3c(c2)OCO3)CC1` [Compound 247], the half-maximal inhibitory concentration (IC50) was in the range of 1000 to 10000 nM.

Consider `O=C(COc1ccccc1-c1ccc(F)cc1O)N1CCC(CCc2cccnc2)CC1` [Compound 393], for which the 50% inhibitory concentration (IC50) is 1000 to 10000 nM. With `O=C(COc1ccccc1-c1ccc(F)cc1O)N1CCC(CCc2cccc(OC(F)F)c2)CC1` [Compound 435], the IC50 is < 1000 nM. Under `O=C(COc1ccccc1-c1ccc2[nH]cnc2c1)N1CCC(CCc2ccc3c(c2)OCO3)CC1` [Compound 382] stands 1000 to 10000 nM; under `N#Cc1ccc(-c2ccccc2OCC(=O)N2CCC(CCc3cccc4c3OCO4)CC2)cc1` [Compound 299], < 1000 nM. Under `O=C(C1CC1c1ccccc1-c1ccc(F)cc1O)N1CCC(CCc2ccccc2)CC1` (stereo not shown) [Compound 405] stands < 1000 nM; under `O=C(COc1ccccc1-c1ccccc1)N1CCC(CCc2ccc3c(c2)OC(F)(F)O3)CC1` [Compound 211], 1000 to 10000 nM. Under `O=C1COc2ccc(CCC3CCN(C(=O)COc4ccccc4-c4ccccc4)CC3)cc2N1` [Compound 254] stands 1000 to 10000 nM. As for `COc1cccc(CCC2CCN(C(=O)COc3ccc(S(N)(=O)=O)cc3-c3ccc(F)cc3O)CC2)c1` [Compound 386], the concentration for half-maximal inhibition (IC50) lay within 1000 to 10000 nM. `O=C(COc1ccccc1-c1ccc(F)cc1O)N1CCC(CCc2cccc(OCCN3CCOCC3)c2)CC1` [Compound 355] displayed a concentration for half-maximal inhibition (IC50) of 1000 to 10000 nM. Next, `N#Cc1ccc(-c2ccccc2OCC(=O)N2CCC(CCc3ccc4c(c3)NC(=O)CO4)CC2)cc1` [Compound 257]: 1000 to 10000 nM. The compound `COc1cccc(CCC2CCN(C(=O)COc3ccccc3-c3ccc(C(F)(F)F)cc3O)CC2)c1` [Compound 364] came in with a half-maximal inhibitory concentration (IC50) of 1000 to 10000 nM. Under `CC(C)Oc1cccc(CCC2CCN(C(=O)COc3ccccc3-c3ccc4[nH]cnc4c3)CC2)c1` [Compound 398] stands < 1000 nM; under `N#Cc1ccc(-c2ncccc2OCC(=O)N2CCC(CCc3ccccc3)CC2)cn1` [Compound 334], 1000 to 10000 nM.

For the compound `NC(=O)c1ccc(OCC(=O)N2CCC(CCc3ccccc3)CC2)c(-c2ccc(F)cc2O)c1` [Compound 320], the IC50 is < 1000 nM. Under `N#Cc1ccc(OCC(=O)N2CCC(CCc3ccccc3)CC2)c(-c2ccc3[nH]cnc3c2)c1` [Compound 372] stands 1000 to 10000 nM; under `N#Cc1ccc(OCC(=O)N2CCC(CCc3ccc4c(c3)OCO4)CC2)c(-c2ccc(F)cc2O)c1` [Compound 346], < 1000 nM. With `CC(C)Oc1cccc(CCC2CCN(C(=O)COc3ccccc3-c3ccc(F)cc3O)CC2)c1` [Compound 400], the half-maximal inhibitory concentration (IC50) was < 1000 nM. As to `N#Cc1ccc(-c2ccccc2OCC(=O)N2CCC(CCc3ccc(O)cc3)CC2)cc1` [Compound 279], the IC50 is < 1000 nM.

As for `CN1CC(NC(=O)c2ccc(OCC(=O)N3CCC(CCc4ccccc4)CC3)c(-c3ccc(C#N)cc3)c2)C1` [Compound 367], the IC50 was 1000 to 10000 nM.

In the case of `N#Cc1ccc(OCC(=O)N2CCC(CCc3ccc4c(c3)OCCO4)CC2)c(-c2ccc(F)cc2O)c1` [Compound 347], the 50% inhibitory concentration (IC50) is < 1000 nM. Under `O=C(COc1ncccc1-c1ccc(F)cc1O)N1CCC(CCc2ccc3c(c2)OCO3)CC1` [Compound 329] stands 10000 to 50000 nM. For the compound `COc1ccc(-c2ccccc2OCC(=O)N2CCC(CCc3ccc4c(c3)OCO4)CC2)cn1` [Compound 199], the 50% inhibitory concentration (IC50) is < 1000 nM. Under `Cc1ccc(-c2ccccc2OCC(=O)N2CCC(CCc3ccccc3)CC2)nn1` [Compound 422] stands < 1000 nM. Next, `O=C(COc1cccnc1-c1ccc(F)cc1O)N1CCC(CCc2ccc3c(c2)OCCCO3)CC1` [Compound 338]: 1000 to 10000 nM.

`O=C1COc2ccc(CCC3CCN(C(=O)COc4ccccc4-c4ccc(Cl)nc4)CC3)cc2N1` [Compound 259]: the IC50 was < 1000 nM.

As to `CC1Oc2ccc(CCC3CCN(C(=O)COc4ccccc4-c4ccc(C#N)cc4)CC3)cc2OC1C` (stereo not shown) [Compound 263], the IC50 is < 1000 nM.

`CN(C)C(=O)c1ccc(OCC(=O)N2CCC(CCc3ccccc3)CC2)c(-c2ccc(C#N)cc2)c1` [Compound 316] yielded an IC50 of 1000 to 10000 nM. Next, `N#Cc1ccc(-c2ncccc2OCC(=O)N2CCC(CCc3ccc4c(c3)OCO4)CC2)cc1` [Compound 323]: 1000 to 10000 nM; `COc1ncccc1-c1ccccc1OCC(=O)N1CCC(CCc2ccc3c(c2)OCO3)CC1` [Compound 191]: 1000 to 10000 nM. Next, `O=C(COc1ccccc1-c1ccc(F)cc1O)N1CCC(CCc2ccccc2)CC1` [Compound 348]: < 1000 nM; `O=C(COc1ccccc1-c1ccc(F)cc1O)N1CCC(CCc2ccc3c(c2)OCCO3)CC1` [Compound 296]: < 1000 nM. Under `N#Cc1cc(-c2ccccc2OCC(=O)N2CCC(CCc3ccc4c(c3)OCO4)CC2)ccc1F` [Compound 188] stands < 1000 nM; under `N#CCc1ccc(-c2ccccc2OCC(=O)N2CCC(CCc3ccc4c(c3)OCO4)CC2)cc1` [Compound 197], < 1000 nM; under `CCCOc1ccc(CCC2CCN(C(=O)COc3ccccc3-c3ccc(C#N)cc3)CC2)cc1OCCC` [Compound 300], < 1000 nM. The compound `O=C1COc2ccc(CCC3CCN(C(=O)COc4ccccc4-c4ccc(F)cc4)CC3)cc2N1` [Compound 258] gave an IC50 of 1000 to 10000 nM. As for `COc1cccc(CCC2CCN(C(=O)COc3ccccc3-c3ccc4[nH]c(C)nc4c3)CC2)c1` [Compound 387], the IC50 is 1000 to 10000 nM.

Consider `C#CCOc1ccc(C(=O)c2ccc(-c3ccccc3OCC(=O)N3CCC(CCc4cccc(OC(C)C)c4)CC3)cc2)cc1` [Compound 419], for which the IC50 is 1000 to 10000 nM. Next, `CC(C)Oc1cccc(CCC2CCN(C(=O)COc3ccccc3-c3ccc(C#N)cc3OCc3ccccc3)CC2)c1` [Compound 442]: < 1000 nM; `O=C(COc1cccnc1-c1ccc2[nH]ncc2c1)N1CCC(CCc2ccc3c(c2)OCO3)CC1` [Compound 328]: 1000 to 10000 nM; `O=C(COc1ccccc1-c1ccccc1Cl)N1CCC(CCc2ccc3c(c2)OCO3)CC1` [Compound 165]: < 1000 nM. Under `O=C(COc1ccccc1-c1ccccc1)N1CCC(CCc2ccc(F)c(F)c2)CC1` [Compound 120] stands < 1000 nM; under `O=C(COc1ccccc1-c1ccc(F)cc1O)N1CCC(CCc2ccc(N3CCOCC3)cc2)CC1` [Compound 305], < 1000 nM. `Cc1ccc(C#CC2CCN(C(=O)COc3ccc(C#N)cc3-c3ccc(C#N)cc3)CC2)nn1` [Compound 428] returned an IC50 of 1000 to 10000 nM. Under `O=C(COc1ccccc1-c1ccc(F)cc1O)N1CCC(CCc2cccc(OCCN3CCCC3)c2)CC1` [Compound 359] stands 1000 to 10000 nM; under `O=C(COc1ccccc1-c1ccc(Cl)cc1)N1CCC(CCc2ccc3c(c2)OCO3)CC1` [Compound 190], < 1000 nM. Turning to `N#Cc1ccc(-c2ccccc2OCC(=O)N2CCC(CCc3ccc4c(c3)OCCO4)CC2)cc1` [Compound 291], the IC50 is < 1000 nM. For the compound `O=C(COc1cccnc1-c1ccc(F)cc1O)N1CCC(CCc2ccc3c(c2)OCO3)CC1` [Compound 326], the IC50 was 1000 to 10000 nM. Next, `CC(C)Oc1ccc(CCC2CCN(C(=O)COc3ccccc3-c3ccc(C#N)cc3)CC2)cc1OC(C)C` [Compound 301]: < 1000 nM. Turning to `CCc1ccc(OCC(=O)N2CCC(CCc3ccc4c(c3)OCO4)CC2)c(-c2ccccc2)c1` [Compound 276], the IC50 was < 1000 nM. Compound `COc1cccc(CCC2CCN(C(=O)COc3cccnc3-c3ccc4[nH]ccc4c3)CC2)c1` [Compound 377] yielded a 50% inhibitory concentration (IC50) of 1000 to 10000 nM.
